Laboratory results: ChEMBL document CHEMBL3576796, “A Broad Anti-influenza Hybrid Small Molecule That Potently Disrupts the Interaction of Polymerase Acidic Protein-Basic Protein 1 (PA-PB1) Subunits” (J Med Chem, 2015)

Experiment: Antiviral activity against Influenza A virus A/Parma/24/09 (H1N1) (Oseltamivir-resistant) assessed as reduction in plaque formation after 48 hrs by plaque reduction assay
Assay type: functional, Influenza A virus (A/Parma/24/2009(H1N1))

| Structure (SMILES) | EC50 |
| --- | --- |
| Cc1cc(-c2ccccc2)n2nc(C(=O)Nc3sc4c(c3C(N)=O)CCCCC4)nc2n1 | 25 µM |
| Cc1cc(-c2ccccc2)nc2nc(NC(=O)c3ccccc3)nn12 | 25 µM |
| Cc1cc(-c2ccccc2)nc2nc(C(=O)Nc3sc4c(c3C(N)=O)CCCCC4)nn12 | 5 µM |
| CCCOc1ccc(C(=O)Nc2nc3n(n2)C(c2ccccc2)C=C(C)N3)cc1 (centres undefined) | 49 µM |
